Target: human σ1 receptor (Homo sapiens (Human), UniProt Q99720)
Experiment: Human σ1 receptor radioligand assay
Type: binding
Conditions: transfected HEK-293 membranes, [3H](+)-pentazocine radioligand
Experimental: Human σ1 Receptor Radioligand Assay
To investigate binding properties of test compounds to human σ1 receptor, transfected HEK-293 membranes and [^3H](+)-pentazocine (Perkin Elmer, NET-1056), as the radioligand, were used. The assay was carried out with 7 μg of membrane suspension, 5 nM of [^3H](+)-pentazocine in either absence or presence of either buffer or 10 μM Haloperidol for total and non-specific binding, respectively. Binding buffer contained Tris-HCl 50 mM at pH 8. Plates were incubated at 37° C. for 120 minutes. After the incubation period, the reaction mix was then transferred to MultiScreen HTS, FC plates (Millipore), filtered and plates were washed 3 times with ice-cold 10 mM Tris-HCL (pH7.4). Filters were dried and counted at approximately 40% efficiency in a MicroBeta scintillation counter (Perkin-Elmer) using EcoScint liquid scintillation cocktail

human σ1 receptor, sequence (Q99720 whole entry): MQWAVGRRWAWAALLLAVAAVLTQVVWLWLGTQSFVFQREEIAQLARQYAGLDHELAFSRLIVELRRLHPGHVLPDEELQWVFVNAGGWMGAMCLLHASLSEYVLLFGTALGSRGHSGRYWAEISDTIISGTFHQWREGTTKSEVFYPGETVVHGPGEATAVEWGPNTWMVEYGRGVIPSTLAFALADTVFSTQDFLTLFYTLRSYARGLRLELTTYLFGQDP

## CCN1CC(C)(C)OC2(CCCN(CC(C)C)CC2)C1 (stereo not drawn) [Example 89, 4-ethyl-9-isobutyl-2,2-dimethyl-1-oxa-4,9-diazaspiro[5.6]dodecane]
  Ki: < 100 nM

## CC(C)N1CC2(CN(CC(C)(C)C)C2)O[C@@H](C)C1=O [Example 76, (S)-8-isopropyl-6-methyl-2-neopentyl-5-oxa-2,8-diazaspiro[3.5]nonan-7-one]
  Ki: ≥ 500 nM

## CCN1CC(C)(C)OC2(CCCN(CCC(C)C)CC2)C1 (stereo not drawn) [Example 88, 4-ethyl-9-isopentyl-2,2-dimethyl-1-oxa-4,9-diazaspiro[5.6]dodecane]
  Ki: < 100 nM

## CCN1CC(C)(C)OC2(CCCN(CCc3ccccc3)CC2)C1 (stereo not drawn) [Example 87, 4-ethyl-2,2-dimethyl-9-phenethyl-1-oxa-4,9-diazaspiro[5.6]dodecane]
  Ki: < 100 nM

## CCN1C[C@]2(CCCN(Cc3ccc(C#N)cc3)CC2)O[C@H](C)C1=O [Example 68, 4-(((2R,6R)-4-ethyl-2-methyl-3-oxo-1-oxa-4,9-diazaspiro[5.6]dodecan-9-yl)methyl)benzonitrile]
  Ki: ≥ 500 nM

## c1ccc(CN2CCCC3(CC2)CN(c2ccccc2)CC2(CC2)O3)cc1 (stereo not drawn) [Example 21, 8-benzyl-13-phenyl-4-oxa-8,13-diazadispiro[2.1.6.3]tetradecane]
  Ki: < 100 nM

## CC(C)OCCN1CCCC2(CC1)CN(C(=O)c1ccccc1)CC(C)(C)O2 (stereo not drawn) [Example 50, (9-(2-isopropoxyethyl)-2,2-dimethyl-1-oxa-4,9-diazaspiro[5.6]dodecan-4-yl)(phenyl)methanone]
  Ki: ≥ 500 nM

## CC(C)CCN1CCCC2(CC1)CN(Cc1ccccc1)CC1(CC1)O2 (stereo not drawn) [Example 84, 13-benzyl-8-isopentyl-4-oxa-8,13-diazadispiro[2.1.6.3]tetradecane]
  Ki: < 100 nM

## CCN1CC2(CN(CCC(C)C)C2)OC2(CC2)C1=O [Example 6, 10-ethyl-7-isopentyl-4-oxa-7,10-diazadispiro[2.1.3.3]undecan-11-one]
  Ki: < 100 nM

## CC(C)CCN1CC2(C1)CN(C(C)C)C(=O)[C@H](C)O2 [Example 41, (S)-2-isopentyl-8-isopropyl-6-methyl-5-oxa-2,8-diazaspiro[3.5]nonan-7-one]
  Ki: ≥ 500 nM

## c1ccc(CN2CCCC3(CC2)CN(Cc2ccccc2)CC2(CC2)O3)cc1 (stereo not drawn) [Example 82, 8,13-dibenzyl-4-oxa-8,13-diazadispiro[2.1.6.3]tetradecane]
  Ki: < 100 nM

## CC(C)CN1CC2(C1)CN(C(C)C)C(=O)[C@@H](C)O2 [Example 42, (R)-2-isobutyl-8-isopropyl-6-methyl-5-oxa-2,8-diazaspiro[3.5]nonan-7-one]
  Ki: ≥ 500 nM

## CCN1C[C@]2(CCCN(CCC(C)C)CC2)O[C@@H](C)C1=O [Example 49, (2S,6R)-4-ethyl-9-isopentyl-2-methyl-1-oxa-4,9-diazaspiro[5.6]dodecan-3-one]
  Ki: ≥ 500 nM

## CCN1CC2(CN(CCc3ccccc3)C2)OC2(CC2)C1=O [Example 5]
  Ki: < 500 nM

## O=C1N(c2ccccc2)CC2(CCCN(Cc3ccccc3)C2)OC12CC2 (stereo not drawn) [Example 15, 7-benzyl-12-phenyl-4-oxa-7,12-diazadispiro[2.1.5.3]tridecan-13-one]
  Ki: ≥ 500 nM

## CCN1C[C@@]2(CCCN(Cc3ccccc3)CC2)O[C@H](C)C1=O [Example 59, (2R,6S)-9-benzyl-4-ethyl-2-methyl-1-oxa-4,9-diazaspiro[5.6]dodecan-3-one]
  Ki: ≥ 500 nM

## O=C(c1ccccc1)N1CC2(CCCN(CCc3ccccc3)CC2)OC2(CC2)C1 (stereo not drawn) [Example 27, (8-phenethyl-4-oxa-8,13-diazadispiro[2.1.6.3]tetradecan-13-yl)(phenyl)methanone]
  Ki: < 100 nM

## CCN1CC2(CCCN(Cc3ccc(C#N)cc3)CC2)OC(C)(C)C1=O (stereo not drawn) [Example 58, 4-((4-ethyl-2,2-dimethyl-3-oxo-1-oxa-4,9-diazaspiro[5.6]dodecan-9-yl)methyl)benzonitrile]
  Ki: ≥ 500 nM

## O=C(c1ccccc1)N1CC2(CCCN(Cc3ccccc3)CC2)OC2(CC2)C1 (stereo not drawn) [Example 56, (8-benzyl-4-oxa-8,13-diazadispiro[2.1.6.3]tetradecan-13-yl)(phenyl)methanone]
  Ki: < 100 nM

## O=C1N(c2ccccc2)CC2(CCCN(CCc3ccccc3)CC2)OC12CC2 (stereo not drawn) [Example 9, 8-phenethyl-13-phenyl-4-oxa-8,13-diazadispiro[2.1.6.3]tetradecan-14-one]
  Ki: < 100 nM

## CCN1CC2(CN(CCC(C)C)C2)O[C@H](C)C1=O [Example 36, (R)-8-ethyl-2-isopentyl-6-methyl-5-oxa-2,8-diazaspiro[3.5]nonan-7-one]
  Ki: ≥ 500 nM

## CC(C)CCN1CC2(C1)CN(C(C)C)C(=O)[C@@H](C)O2 [Example 40, (R)-2-isopentyl-8-isopropyl-6-methyl-5-oxa-2,8-diazaspiro[3.5]nonan-7-one]
  Ki: ≥ 500 nM

## CCN1CC2(CCCN(CCc3ccccc3)CC2)OC2(CC2)C1=O (stereo not drawn) [Example 3, 13-ethyl-8-phenethyl-4-oxa-8,13-diazadispiro[2.1.6.3]tetradecan-14-one]
  Ki: < 100 nM

## CCN1CC2(CCCN(CCc3ccccc3)C2)OC2(CC2)C1=O (stereo not drawn) [Example 2, 12-Ethyl-7-phenethyl-4-oxa-7,12-diazadispiro[2.1.5.3]tridecan-13-one]
  Ki: ≥ 500 nM

## CCN1C[C@@]2(CCCN(Cc3ccc(C#N)cc3)CC2)O[C@@H](C)C1=O [Example 69, 4-(((2S,6S)-4-ethyl-2-methyl-3-oxo-1-oxa-4,9-diazaspiro[5.6]dodecan-9-yl)methyl)benzonitrile]
  Ki: ≥ 500 nM

## CCN1C[C@]2(CCCN(Cc3ccccc3)CC2)OC2(CC2)C1=O [Example 92, (R)-8-benzyl-13-ethyl-4-oxa-8,13-diazadispiro[2.1.6.3]tetradecan-14-one]
  Ki: < 100 nM

## O=C(c1ccccc1)N1CC2(CC2)OC2(CN(CCc3ccccc3)C2)C1 [Example 91, (7-Phenethyl-4-oxa-7,10-diazadispiro[2.1.3.3]undecan-10-yl)(phenyl)methanone]
  Ki: ≥ 500 nM

## CC1(C)CN(C(=O)c2ccccc2)C[C@@]2(CCCN(CCc3ccccc3)CC2)O1 [Example 95, (S)-(2,2-dimethyl-9-phenethyl-1-oxa-4,9-diazaspiro[5.6]dodecan-4-yl)(phenyl)methanone]
  Ki: < 500 nM

## CC(C)CCN1CCCC2(C1)CN(Cc1ccccc1)CC1(CC1)O2 (stereo not drawn) [Example 80, 12-benzyl-7-isopentyl-4-oxa-7,12-diazadispiro[2.1.5.3]tridecane]
  Ki: < 100 nM

## O=C(c1ccccc1)N1CC2(CC2)OC2(CCCN(CCc3ccccc3)C2)C1 (stereo not drawn) [Example 24, (7-phenethyl-4-oxa-7,12-diazadispiro[2.1.5.3]tridecan-12-yl)(phenyl)methanone]
  Ki: ≥ 500 nM

## O=C1N(c2ccccc2)CC2(CCCN(Cc3ccccc3)CC2)OC12CC2 (stereo not drawn) [Example 14, 8-benzyl-13-phenyl-4-oxa-8,13-diazadispiro[2.1.6.3]tetradecan-14-one]
  Ki: < 100 nM

## CCN1CC2(CN(CC(C)C)C2)O[C@@H](C)C1=O [Example 39, (S)-8-ethyl-2-isobutyl-6-methyl-5-oxa-2,8-diazaspiro[3.5]nonan-7-one]
  Ki: ≥ 500 nM

## CC(C)CN1CCCC2(C1)CN(Cc1ccccc1)CC1(CC1)O2 (stereo not drawn) [Example 81, 12-benzyl-7-isobutyl-4-oxa-7,12-diazadispiro[2.1.5.3]tridecane]
  Ki: < 100 nM

## CC1(C)CN(C(=O)c2ccccc2)CC2(CCCN(CCc3ccccc3)CC2)O1 (stereo not drawn) [Example 34, (2,2-dimethyl-9-phenethyl-1-oxa-4,9-diazaspiro[5.6]dodecan-4-yl)(phenyl)methanone]
  Ki: < 100 nM

## CCN1CC2(CCCN(CCc3ccccc3)CC2)OC(C)(C)C1=O (stereo not drawn) [Example 30, 4-ethyl-2,2-dimethyl-9-phenethyl-1-oxa-4,9-diazaspiro[5.6]dodecan-3-one]
  Ki: < 100 nM

## CC(C)CCN1CCCC2(CC1)CN(c1ccccc1)C(=O)C1(CC1)O2 (stereo not drawn) [Example 10, 8-isopentyl-13-phenyl-4-oxa-8,13-diazadispiro[2.1.6.3]tetradecan-14-one]
  Ki: < 100 nM

## CC(C)CCN1CCCC2(C1)CN(c1ccccc1)CC1(CC1)O2 (stereo not drawn) [Example 20, 7-isopentyl-12-phenyl-4-oxa-7,12-diazadispiro[2.1.5.3]tridecane]
  Ki: < 100 nM

## c1ccc(CN2CCCC3(C2)CN(c2ccccc2)CC2(CC2)O3)cc1 (stereo not drawn) [Example 23, 7-benzyl-12-phenyl-4-oxa-7,12-diazadispiro[2.1.5.3]tridecane]
  Ki: < 500 nM

## CCN1C[C@@]2(CCCN(CCC(C)C)CC2)O[C@@H](C)C1=O [Example 48, (2S,6S)-4-ethyl-9-isopentyl-2-methyl-1-oxa-4,9-diazaspiro[5.6]dodecan-3-one]
  Ki: ≥ 500 nM

## CCN1CC2(CCCN(CCC(C)C)CC2)OC2(CC2)C1=O (stereo not drawn) [Example 4, 13-ethyl-8-isopentyl-4-oxa-8,13-diazadispiro[2.1.6.3]tetradecan-14-one]
  Ki: < 100 nM

## CCN1C[C@]2(CCCN(Cc3ccc(F)cc3)CC2)O[C@@H](C)C1=O [Example 66, (2S,6R)-4-ethyl-9-(4-fluorobenzyl)-2-methyl-1-oxa-4,9-diazaspiro[5.6]dodecan-3-one]
  Ki: ≥ 500 nM

## CCN1CC2(CCCN(Cc3ccccc3)CC2)OC2(CC2)C1=O (stereo not drawn) [Example 12, 8-benzyl-13-ethyl-4-oxa-8,13-diazadispiro[2.1.6.3]tetradecan-14-one]
  Ki: < 100 nM

## CCN1C[C@@]2(CCCN(Cc3ccccc3)CC2)O[C@@H](C)C1=O [Example 61, (2S,6S)-9-benzyl-4-ethyl-2-methyl-1-oxa-4,9-diazaspiro[5.6]dodecan-3-one]
  Ki: ≥ 500 nM

## CCN1CC2(CN(CCC(C)C)C2)O[C@@H](C)C1=O [Example 37, (S)-8-ethyl-2-isopentyl-6-methyl-5-oxa-2,8-diazaspiro[3.5]nonan-7-one]
  Ki: ≥ 500 nM

## CCN1CC2(CCCN(CC(C)C)CC2)OC(C)(C)C1=O (stereo not drawn) [Example 32, 4-ethyl-9-isobutyl-2,2-dimethyl-1-oxa-4,9-diazaspiro[5.6]dodecan-3-one]
  Ki: < 500 nM
